Assay results: US20210161131A1, “cis-p-Menthane-1,8-Di-secondary Amine Compounds as well as Their Preparation Methods and Application in Weed Control” (RESEARCH INSTITUTE OF FORESTRY NEW TECHNOLOGY, CHINESE …, priority 2019, published 2021)

Test system: barnyard grass seeds
Experiment: Petri dish seed germination method: inhibition of root and stem growth of barnyard grass
Format: in vivo
Conditions: 96 hours incubation
Method: (§1) Step 2: Accurately weigh 1 mmol cis-p-menthane-1,8-di-Schiff base compounds and cis-p-menthane-1,8-di-secondary amine compounds respectively, dissolve each of them with 0.25 mL DMF, and add a drop of Tween 80 in each resulted solution. After being fully dissolved, each solution is transferred to a 100 mL volumetric flask respectively and then diluted to the mark with distilled water to obtain a solution with a concentration of 10 mmol/L as the mother liquor. The two-fold dilution method is used to prepare diluted solutions with a series of concentrations (the concentrations of DMF and Tween 80 in the diluted solutions are the same as those in the mother liquor).
(§2) Barnyard grass seeds are placed in a 28° C. incubator and are soaked in an appropriate amount of distilled water for 12 hours there. After the clean water is filtered out, the seeds are then placed in the 28° C. incubator for 24 hours to germinate. Spread 2 pieces of filter paper in each of several Petri dishes, and place 10 barnyard grass seeds with the same size in each dish. Repeat each treatment for three times The dishes are divided into two groups: test dishes and control dishes. Add into each test dish 10 mL of the sample solution with the corresponding concentration of the target compound, and add into each control dish the same amount of the mixture of water, DMF and Tween 80 as the blank control. Add 10 seeds to each of the dishes (both test dishes and control dishes), place them in an artificial climate incubator, and incubate them for 96 hours under a temperature of 28° C., an illumination of 5000 1×, a photoperiod of day:night=16:8 and a relative humidity of 70-80%. The experimental data is processed and analyzed with DPS software to calculate the inhibition rate (y) of cis-p-menthane-1,8-di-secondary amine compounds on the root growth or stem growth of barnyard grass seeds.
Wherein, y is the inhibition rate of root growth or stem growth (%), x0 is the root length or stem length of the control, and x1 is the root length or stem length of the sample.
as §1, with “Accurately” for “Step 2: Accurately”, “cis-p-menthane-1,8-bis-(4-chlorophenyl)Schiff” for “cis-p-menthane-1,8-di-Schiff”, “base” for “base compounds”, “cis-p-menthane-1,8-bis-(4-chlorobenzyl)amine” for “cis-p-menthane-1,8-di-secondary amine compounds”, “(5 mmol/L, 2.5 mmol/L, 1.25 mmol/L, 0.625 mmol/L, 0.3125 mmol/L and 0.1563 mmol/L; the” for “(the”
as §2, with “placed in a 30° C. incubator” for “placed in the 28° C. incubator”, “in each Petri dish,” for “in each of several Petri dishes,”, “each Petri dish, and place” for “several Petri dishes, and place”, “with the above corresponding concentration” for “with the corresponding concentration”, “with DPS software.” for “with DPS software to calculate the inhibition rate (y) of cis-p-menthane-1,8-di-secondary amine compounds on the root growth or stem growth of barnyard grass seeds.”

SMILES	inhibition rate on the root growth of barnyard grass seeds (0.15625 mmol/L) [%]	inhibition rate on the stem growth of barnyard grass seeds (0.15625 mmol/L) [%]	inhibition rate on the root growth of barnyard grass seeds (0.3125 mmol/L) [%]	inhibition rate on the stem growth of barnyard grass seeds (0.3125 mmol/L) [%]	inhibition rate on the root growth of barnyard grass seeds (0.625 mmol/L) [%]	inhibition rate on the stem growth of barnyard grass seeds (0.625 mmol/L) [%]	inhibition rate on the root growth of barnyard grass seeds (1.25 mmol/L) [%]	inhibition rate on the stem growth of barnyard grass seeds (1.25 mmol/L) [%]	inhibition rate on the root growth of barnyard grass seeds (2.5 mmol/L) [%]	inhibition rate on the stem growth of barnyard grass seeds (2.5 mmol/L) [%]	inhibition rate on the root growth of barnyard grass seeds (5 mmol/L) [%]	inhibition rate on the stem growth of barnyard grass seeds (5 mmol/L) [%]
CC1(NCc2ccc(Cl)cc2)CCC(C(C)(C)NCc2ccc(Cl)cc2)CC1 (stereo not drawn) [cis-p-menthane-1,8-bis-(4-chlorobenzyl)amine]	31.4	35.7	57.1	41.6	87.3	65.8	90.8	63.4	91.6	68.0	96.7	75.1
CC(C)(N=Cc1ccc(Cl)cc1)[C@H]1CC[C@@](C)(N=Cc2ccc(Cl)cc2)CC1 [cis-p-menthane-1,8-bis-(4-chlorophenyl) Schiff base, reference compound]	–	–	−5.0	1.4	24.3	4.6	76.7	23.9	49.9	22.8	92.4	20.9
CN(C)c1ccc(C=NC(C)(C)[C@H]2CC[C@@](C)(N=Cc3ccc(N(C)C)cc3)CC2)cc1 [cis-p-menthane-1,8-bis-(4-dimethylaminobenzyl)Schiff base, reference compound]	–	–	9.7	−12.2	45.4	9.5	49.8	6.9	59.3	1.9	67.1	13.2
CN(C)c1ccc(CNC2(C)CCC(C(C)(C)NCc3ccc(N(C)C)cc3)CC2)cc1 (stereo not drawn) [cis-p-menthane-1,8-bis-(4-dimethylaminobenzyl)amine]	14.4	19.1	31.0	19.6	21.0	24.9	48.1	22.3	70.3	34.3	89.3	56.6
CC1(N=Cc2ccc(F)cc2)CCC(C(C)(C)N=Cc2ccc(F)cc2)CC1 (stereo not drawn) [cis-p-menthane-1,8-bis-(4-fluorobenzyl)Schiff base, reference compound]	–	–	15.7	−13.7	72.8	2.7	85.7	23.9	82.9	20.1	79.7	32.3
CC1(NCc2ccc(F)cc2)CCC(C(C)(C)NCc2ccc(F)cc2)CC1 (stereo not drawn) [cis-p-menthane-1,8-bis-(4-fluorobenzyl)amine]	38.2	7.2	48.3	10.5	78.6	58.3	78.6	75.1	98.6	85.9	100.0	100.0
COc1ccc(C=NC2(C)CCC(C(C)(C)N=Cc3ccc(OC)cc3)CC2)cc1 (stereo not drawn) [cis-p-menthane-1,8-bis-(4-methoxybenzyl)Schiff base, reference compound]	–	–	70.7	15.4	66.7	6.9	55.3	4	28.1	8.0	7.6	2.1
COc1ccc(CNC2(C)CCC(C(C)(C)NCc3ccc(OC)cc3)CC2)cc1 (stereo not drawn) [cis-p-menthane-1,8-bis-(4-methoxybenzyl)amine]	37.8	9.9	42.2	27.9	88.7	72.5	95.1	70.6	96.5	84.4	100.0	84.3
Cc1ccc(CNC(C)(C)[C@H]2CC[C@@](C)(NCc3ccc(C)cc3)CC2)cc1 [cis-p-menthane-1,8-bis-(4-methylbenzyl)amine]	42.5	42.1	86.6	64.6	89.6	65.9	91.9	74.7	95.2	87.1	100.0	93.3
CSc1ccc(CNC2(C)CCC(C(C)(C)NCc3ccc(SC)cc3)CC2)cc1 (stereo not drawn) [cis-p-menthane-1,8-bis-(4-methylthiobenzyl)amine]	32.0	22.8	58.1	66.0	77.2	66.2	90.8	83.4	96.0	77.5	98.5	85.1
